Data published in publication PMC3608651, “A Broad Profile of Co-Dominant Epitopes Shapes the Peripheral Mycobacterium tuberculosis Specific CD8+ T-Cell Immune Response in South African Patients with Active Tuberculosis” (PLoS ONE, 2013).
Read-outs that look alike come from different tables or passages of the source.

Columns and labels:
Format in all cases: binding
HLA-A*02:01 = HLA-A*02:01 (Homo sapiens, UniProt P04439, D140Y/D185E/D98H/E176V/E277Q/G131W/G231S/I119V/I121R/I166T/I218V/L300P/L318F/N151K/N90K/P208A/P217A/Q86G/Q94H/R138H/R169H/T345S); settings: plate-bound monomer 0.5 µg/ml, duplicated experiments, positive binder >40%
HLA-A*24:02 = HLA-A*24:02 (Homo sapiens, UniProt P04439, D101N/D140Y/D185E/E176V/E190D/F33S/G103R/G107R/I119L/I121M/I306V/K335N/L105A/L180Q/L300P/N151K/N90K/Q86E/Q94H/R106L/R138H/R89G/T104I/T345S/V100E/W191G/Y123F); settings: duplicated experiments, positive binder >40%
HLA-C*07:01 = HLA-C*07:01 (Homo sapiens, UniProt P10321, K90N/S123Y); settings: duplicated experiments, positive binder >40%
HLA-A*30:02 [1] = target: T1, HLA-A*30:02 (Homo sapiens, UniProt P04439, D101N/D140H/D185E/E176R/F33S/G80R/H175R/K168Q/Q94H/R138E/R41S/V100E); settings: duplicated experiments, positive binder >40%
HLA-A*30:02 [2] = target: T1, HLA-A*30:02; settings: time points 0-8 h
HLA-A*30:02 [3] = target: T1, HLA-A*30:02
HLA-B*07:02 = HLA-B*07:02 (Homo sapiens, UniProt P01889); settings: percent relative the binding of positive control peptide […]; duplicated experiments; positive binder >40%
HLA-A*68:01 = HLA-A*68:01 (Homo sapiens, UniProt P04439, A269V/D185E/E176V/E277Q/E87N/F33Y/G231S/I121M/I166T/I218V/L180W/L300P/L318F/N151K/P208A/P217A/Q86R/R169H/T345S); settings: duplicated experiments, positive binder >40%
HLA-A*30:01 = HLA-A*30:01 (Homo sapiens, UniProt P04439, D140H/D185E/E176W/F33S/G80R/H175R/K168Q/R138E/R41S); settings: duplicated experiments, positive binder >40%
HLA-B*58:01 = HLA-B*58:01 (Homo sapiens, UniProt P01889, A329T/C349S/D201E/D98Y/E176V/E187L/E204Q/E69T/G107R/I218V/I90N/K202T/L105A/L119I/N104I/N87E/Q89R/Q94S/R106L/R155S/R180L/R86G/S101N/S121R/S35A/S48A/T118I/V127L/V306I/V36M/Y140S/Y91M); settings: duplicated experiments, positive binder >40%
[4] = percent relative the binding of positive control peptide FLPSDFFPSV
[5] = percent relative the binding of positive control peptide RYLKDQQLL
[6] = percent relative the binding of positive control peptide KYFDEHYEY
[7] = percent relative the binding of positive control peptide KIQNFRVYY
[8] = peptide titrated 10−4 to 10−9 M
[9] = percent relative the binding of positive control peptide KTGGPIYKR
[10] = percent relative the binding of positive control peptide KTKDIVNGL
[11] = percent relative the binding of positive control peptide IAMESIVIW
[12] = percent relative the binding of positive control peptide […]

Sequence | Bind A*02:01 (HLA-A*02:01; [4]) [%] | Bind A*24:02 (HLA-A*24:02; [5]) [%] | Bind C*07:01 (HLA-C*07:01; [6]) [%] | Bind A*30:02 (HLA-A*30:02 [1]; [7]) [%] | O-rate A*30:02 (t1/2) (HLA-A*30:02 [2]) [h] | Aff A*30:02 (ED50) (HLA-A*30:02 [3]; [8]) [M] | Bind B*07:02 (HLA-B*07:02) [%] | Bind A*68:01 (HLA-A*68:01; [9]) [%] | Bind A*30:01 (HLA-A*30:01; [10]) [%] | Bind B*58:01 (HLA-B*58:01; [11]) [%] | Bind A*02:01 (HLA-A*02:01; [12]) [%] | Bind A*24:02 (HLA-A*24:02; [12]) [%] | Bind C*07:01 (HLA-C*07:01; [12]) [%] | Bind A*30:02 (HLA-A*30:02 [1]; [12]) [%] | Aff A*30:02 (ED50) (HLA-A*30:02 [3]) | Bind A*68:01 (HLA-A*68:01; [12]) [%] | Bind A*30:01 (HLA-A*30:01; [12]) [%] | Bind B*58:01 (HLA-B*58:01; [12]) [%]
AWGGSGSEA [Rv3875_42–50] | 4 | 4 | 29 | 90 | 1.7 | 8e-07 | 6 | 11 | 16 | 6 | – | – | – | – | – | – | – | –
VFNFPPNGT | – | – | – | – | 1.2 | – | 0 | – | – | – | 34 | 25 | 0 | 113 | 3e-05 M | 3 | 3 | 33
GQSSFYSDW | – | – | – | – | 3.3 | – | 0 | – | – | – | 27 | 76 | 0 | 71 | 2e-08 M | 0 | 0 | 62
CGKAGCQT Y | – | – | – | – | 3 | – | 8 | – | – | – | 44 | 32 | 5 | 138 | 8E -08 M | 60 | 28 | 35
SNLKFQDAY | – | – | – | – | 1.6 | – | 0 | – | – | – | 11 | 23 | 52 | 124 | 2e-07 M | 18 | 0 | 14
AGQAMASTE [Rv3875_79–87] | 0 | 0 | 28 | 58 | 2.3 | 5e-09 | 9 | 13 | 20 | 11 | – | – | – | – | – | – | – | –
RSSNLKFQD | – | – | – | – | 1.6 | – | 3 | – | – | – | 11 | 26 | 64 | 104 | 1E -05 M | 11 | 0 | 14
WGGSGSEAY [Rv3875_43–51] | 3 | 0 | 21 | 89 | 1.1 | 4e-07 | 7 | 2 | 18 | 2 | – | – | – | – | – | – | – | –
ATATELNNA [Rv3875_60–68] | 31 | 0 | 0 | 67 | 3.8 | 3e-07 | 12 | 0 | 0 | 0 | – | – | – | – | – | – | – | –
NLKFQDAYN | – | – | – | – | 0.4 | – | 0 | – | – | – | 8 | 0 | 7 | 123 | 1e-05 M | 9 | 0 | 0
SAIQGNVTS [Rv3875_16–24] | 1 | 15 | 12 | 67 | 0.9 | 3e-08 | 4 | 29 | 11 | 12 | – | – | – | – | – | – | – | –
QQKWDATAT [Rv3875_55–63] | 0 | 0 | 4 | 60 | 1.7 | 9e-08 | 9 | 9 | 29 | 8 | – | – | – | – | – | – | – | –
KFQDAYNAA | – | – | – | – | 0.7 | – | 0 | – | – | – | 19 | 0 | 0 | 113 | 8e-06 M | 0 | 0 | 0
TATELNNAL [Rv3875_61–69] | 11 | 15 | 5 | 106 | 2.6 | 9e-09 | 12 | 13 | 4 | 0 | – | – | – | – | – | – | – | –
IYAGSLSAL | – | – | – | – | 0.5 | – | 83 | – | – | – | 44 | 107 | 0 | 116 | 4E -06 M | 4 | 0 | 16
